Laboratory results: article PMC12475274, “Harnessing indole scaffolds to identify small-molecule IRE1α inhibitors modulating XBP1 mRNA splicing” (Nature Communications, 2025)
Where “and” joins values, the source holds several entries; their conditions need not be identical. Equal values may be shown once. Read-outs that look alike come from different tables or passages of the source.

Key:
MDA-MB-468 cells = experiment: Cell viability assay (CCK-8), MDA-MB-468; format: cell-based, human; parameters: key to MDMB-468 viability: % viability vs DMSO-treated cells, blank-corrected A450; conditions: in % (unit assumed)
Procedure: (§1) Cells were collected and seeded into 96-well plates at a density of 2000–4000 cells per well and cultured overnight to allow cells to adhere. After adherence, cells were treated with the indicated compounds for 72 h. Then 20 μL CCK-8 solution (Vazyme, A311) was added into each well and incubated at 37 °C for 2–4 h. Absorbance was detected at a wavelength of 450 nm using a TECAN plate reader. Cell viability was calculated with the equation: Cell viability (%) = 100(Absorbance of treated cell - Absorbance of Blank control)/ (Absorbance of DMSO-treated cells - Absorbance of Blank control); Blank control: medium and CCK-8 solution, no cells.

HT-29 cells = experiment: Cell viability assay (CCK-8), HT-29; format: cell-based, human; parameters: key to HT-29 viability: % viability vs DMSO-treated cells, blank-corrected A450; conditions: in % (unit assumed)
Procedure: as §1

HCT 116 cells = experiment: Cell viability assay (CCK-8), HCT 116; format: cell-based, human; parameters: key to HCT 116 viability: % viability vs DMSO-treated cells, blank-corrected A450; conditions: in % (unit assumed)
Procedure: as §1

A549 cells = experiment: Cell viability assay (CCK-8), A549; format: cell-based, human; parameters: key to A549 viability: % viability vs DMSO-treated cells, blank-corrected A450; conditions: in % (unit assumed)
Procedure: as §1

[1] = biological target: T1, dephosphorylated IRE1α (547–977) (Homo sapiens, UniProt O75460); experiment: FRET-based IRE1α RNase activity assay, dephosphorylated IRE1α; format: biochemical
T1 construct: Human IRE1α kinase and RNase domain (residues 547–977) was subcloned into pLIB plasmid; His tag (with TEV cleavage site) (N, cleaved yes); made in house; host or cells: Sf9 insect cells, baculovirus (Bac-to-Bac)
T1 sequence (O75460 547-977): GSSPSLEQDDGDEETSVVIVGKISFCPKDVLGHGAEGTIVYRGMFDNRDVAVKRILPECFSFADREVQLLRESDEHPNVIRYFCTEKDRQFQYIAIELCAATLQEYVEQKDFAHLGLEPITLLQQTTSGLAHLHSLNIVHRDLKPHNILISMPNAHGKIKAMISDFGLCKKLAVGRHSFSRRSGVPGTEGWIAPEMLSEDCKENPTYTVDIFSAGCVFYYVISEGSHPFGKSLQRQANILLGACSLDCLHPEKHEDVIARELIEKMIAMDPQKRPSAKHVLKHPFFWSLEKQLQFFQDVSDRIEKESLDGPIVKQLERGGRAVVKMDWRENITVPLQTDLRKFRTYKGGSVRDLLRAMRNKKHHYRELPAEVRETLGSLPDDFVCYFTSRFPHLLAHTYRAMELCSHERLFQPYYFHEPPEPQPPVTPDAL
Method in brief: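 Inhibition came from the linear-phase cleavage rate of 100 nM XBP1-sequence FAM/BHQ1 RNA, monitored at 485/535 nm over one hour and fitted to IC50. Enzyme: 40 nM unphosphorylated IRE1α kinase-RNase domain (547–977), exposed to compound for 30 min at room temperature before substrate, in HEPES pH 7.5 buffer.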

[2] = biological target: T2, phosphorylated IRE1α (p-IRE1α) (Homo sapiens, UniProt O75460); experiment: FRET-based IRE1α RNase activity assay, phosphorylated IRE1α; format: biochemical
T2 construct: Human IRE1α kinase and RNase domain (residues 547–977) was subcloned into pLIB plasmid; His tag (with TEV cleavage site) (N, cleaved yes); made in house; host or cells: Sf9 insect cells, baculovirus (Bac-to-Bac)
T2 sequence (O75460 547-977): as above
Method in brief: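 Cleavage of a dual-labeled XBP1 RNA (200 nM) was followed kinetically over 1 h at room temperature at 485/535 nm, with initial slopes giving percent inhibition and IC50. Enzyme was 4 nM phosphorylated human IRE1α 547–977 from insect cells, incubated with compound for 30 min before substrate; buffer 20 mM HEPES pH 7.5, KOAc, MgOAc2, DTT, Triton X-100.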

p-IRE1α = biological target: T3, p-IRE1α (Homo sapiens, UniProt O75460); experiment: Differential scanning fluorimetry (DSF), p-IRE1α; format: binding; conditions: individual replicate values
T3 construct: Human IRE1α kinase and RNase domain (residues 547–977) was subcloned into pLIB plasmid; His tag (with TEV cleavage site) (N, cleaved yes); made in house; host or cells: Sf9 insect cells, baculovirus (Bac-to-Bac)
T3 sequence (O75460 547-977): as above
Procedure: (§2) The DSF assay was performed in PBS buffer containing 2 mM DTT, in a total reaction volume of 20 µl with indicated compounds (final 1% DMSO) and the final concentration of 1 µM IRE1α protein and 5× SYPRO Orange fluorescent dye (5000× in DMSO, Sigma S5692). The melting curve was measured at a temperature range from 25 °C to 95 °C and in increments of 1 °C for 30 s using a Bio-Rad CFX96 Real-Time PCR detection system with the FRET scan mode. The melting temperature (Tm) was obtained by fitting the melting curve to Boltzmann sigmoidal in GraphPad Prism and the thermal shift (∆Tm) was calculated by using the equation: ∆Tm = Tm(compound) -Tm(DMSO).

IRE1α = biological target: T4, IRE1α (Homo sapiens, UniProt O75460); experiment: Differential scanning fluorimetry (DSF), IRE1α; format: binding; conditions: for IRE1 ∆Tm(°C): Supplementary Fig. 3c, replicate values
T4 construct: Human IRE1α kinase and RNase domain (residues 547–977) was subcloned into pLIB plasmid; His tag (with TEV cleavage site) (N, cleaved yes); made in house; host or cells: Sf9 insect cells, baculovirus (Bac-to-Bac)
T4 sequence (O75460 547-977): as above
Procedure: as §2

IRE1α (ERN1) = IRE1α (ERN1) (Homo sapiens, UniProt O75460); experiment: LanthaScreen Eu kinase binding assay, IRE1α
IRE1α (ERN1), sequence (O75460 19-977): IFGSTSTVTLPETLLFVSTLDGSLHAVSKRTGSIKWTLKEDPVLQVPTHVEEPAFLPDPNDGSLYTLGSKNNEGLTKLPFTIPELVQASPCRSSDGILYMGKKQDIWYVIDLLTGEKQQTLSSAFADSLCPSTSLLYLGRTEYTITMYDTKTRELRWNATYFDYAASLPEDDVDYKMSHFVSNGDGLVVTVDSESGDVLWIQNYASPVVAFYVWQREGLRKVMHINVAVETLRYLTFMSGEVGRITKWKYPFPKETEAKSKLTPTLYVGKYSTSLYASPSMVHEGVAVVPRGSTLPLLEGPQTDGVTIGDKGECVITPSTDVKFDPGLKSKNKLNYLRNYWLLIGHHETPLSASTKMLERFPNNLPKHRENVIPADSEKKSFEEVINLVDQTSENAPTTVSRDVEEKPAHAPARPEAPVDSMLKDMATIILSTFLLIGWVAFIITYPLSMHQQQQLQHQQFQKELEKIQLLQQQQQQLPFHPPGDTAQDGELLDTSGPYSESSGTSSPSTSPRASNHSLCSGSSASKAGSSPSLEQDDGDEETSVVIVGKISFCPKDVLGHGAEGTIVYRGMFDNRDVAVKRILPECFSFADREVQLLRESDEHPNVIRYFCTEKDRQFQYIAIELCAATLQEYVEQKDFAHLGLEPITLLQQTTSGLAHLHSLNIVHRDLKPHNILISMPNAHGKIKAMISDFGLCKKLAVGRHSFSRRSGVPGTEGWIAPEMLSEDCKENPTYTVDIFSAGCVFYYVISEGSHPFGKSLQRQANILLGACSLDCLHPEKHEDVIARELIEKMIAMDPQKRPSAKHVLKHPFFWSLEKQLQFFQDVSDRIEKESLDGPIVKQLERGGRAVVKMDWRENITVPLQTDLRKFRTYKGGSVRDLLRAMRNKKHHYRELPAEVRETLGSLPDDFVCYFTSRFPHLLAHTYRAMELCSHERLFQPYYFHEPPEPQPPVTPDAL
Procedure: LanthaScreen^TM Eu kinase binding assays were conducted by SelectScreen Kinase Profiling Services (Thermo Fisher) using Alexa Fluor conjugated kinase tracer, tagged kinase protein, and Eu-labeled anti-tag antibody. The binding of the tracer to the kinase will form the tracer-kinase complex, resulting in a high FRET signal with the Eu-labeled anti-tag antibody. Displacement of the tracer by a kinase inhibitor led to a decreased FRET signal. […] Buffer A containing 50 mM HEPES pH 7.5, 0.01% BRIJ-35, 10 mM MgCl2, and 1 mM EGTA was used.
Kinase profiling was conducted by the SelectScreen Kinase Profiling Services (Thermo Fisher), using Z′-LYTE, Adapta, or LanthaScreen Eu Kinase Binding Assay for different kinases. The kinome phylogenetic tree was generated using the KinMap web portal.

[3] = FRET assay, source data, unit from Fig. 3 / sheet Fig. 2b, read-out: IRE1a IC50, individual replicates (n1-n4)
[4] = FRET assay, source data, unit from Fig. 3, read-out: p-IRE1a IC50, individual replicates (n1-n4)
[5] = Conc. 50000 nM, duplicates, read-out: IRE1a Kinase Displacement(%)

Row | SMILES | MDMB-468 viability (MDA-MB-468 cells; 0.205761 μM) | MDMB-468 viability (MDA-MB-468 cells; 0.617284 μM) | MDMB-468 viability (MDA-MB-468 cells; 1.85185 μM) | MDMB-468 viability (MDA-MB-468 cells; 5.55556 μM) | MDMB-468 viability (MDA-MB-468 cells; 16.6667 μM) | MDMB-468 viability (MDA-MB-468 cells; 50 μM) | HT-29 viability (HT-29 cells; 0.205761 μM) | HT-29 viability (HT-29 cells; 0.617284 μM) | HT-29 viability (HT-29 cells; 1.85185 μM) | HT-29 viability (HT-29 cells; 5.55556 μM) | HT-29 viability (HT-29 cells; 16.6667 μM) | HT-29 viability (HT-29 cells; 50 μM) | HCT 116 viability (HCT 116 cells; 0.205761 μM) | HCT 116 viability (HCT 116 cells; 0.617284 μM) | HCT 116 viability (HCT 116 cells; 1.85185 μM) | HCT 116 viability (HCT 116 cells; 5.55556 μM) | HCT 116 viability (HCT 116 cells; 16.6667 μM) | HCT 116 viability (HCT 116 cells; 50 μM) | A549 viability (A549 cells; 0.205761 μM) | A549 viability (A549 cells; 0.617284 μM) | also measured
1 | Cc1c(CCC(=O)O)c2cc(Br)ccc2n1C(=O)c1ccccc1 [Compound 107] | 101.311 and 95.140 and 93.231 | 100.675 and 92.658 and 100.039 | 97.239 and 104.174 and 86.869 | 97.876 and 87.887 and 96.349 | 85.214 and 82.224 and 83.624 | 81.333 and 82.288 and 84.260 | 107.531 and 106.250 | 105.681 and 105.762 | 112.450 and 111.942 | 121.172 and 105.478 | 115.825 and 113.345 | 110.661 and 115.500 | 102.833 and 101.904 and 103.547 | 105.053 and 111.700 and 97.075 | 98.142 and 107.837 and 106.069 | 107.561 and 110.157 and 105.065 | 99.383 and 99.772 and 101.528 | 89.136 and 87.455 and 94.529 | 99.758 and 114.080 and 100.963 | 103.947 and 108.835 and 105.037 | A549 viability (A549 cells; 1.85185 μM): 103.339 and 113.208 and 107.080; A549 viability (A549 cells; 5.55556 μM): 100.390 and 102.432 and 108.606; A549 viability (A549 cells; 16.6667 μM): 111.429 and 90.004 and 98.703; A549 viability (A549 cells; 50 μM): 105.990 and 95.489 and 98.817
2 | COc1ccc2c(c1)c(CCC(=O)O)c(C)n2C(=O)c1cccs1 [IA03] |  |  |  |  |  |  |  |  |  |  |  |  |  |  |  |  |  |  |  |  | IC50 ([1]; FRET assay, RNase activity, mean (± SEM), read-out: IRE1α IC50): 100 nM; IC50 [1, 3]: 73.3 nM and 110 nM and 118 nM; IC50 ([2]; FRET assay, RNase activity, mean (± SEM), read-out: p-IRE1α IC50): 120 nM; IC50 [2, 4]: 176 nM and 68 nM and 105 nM; IC50 ([2]; p-IRE1a, individual replicates (n1-n3), Supplementary Fig. 2b, 2c, read-out: IC50): 176 nM and 68 nM and 105 nM; p-IRE1a ∆Tm(°C) (p-IRE1α; compound 6.25 μM): 0.24 °C and 0.45 °C; p-IRE1a ∆Tm(°C) (p-IRE1α; compound 12.5 μM): 0.39 °C and 0.62 °C; p-IRE1a ∆Tm(°C) (p-IRE1α; compound 25 μM): 1.04 °C and 1.05 °C; p-IRE1a ∆Tm(°C) (p-IRE1α; compound 50 μM): 1.49 °C and 1.54 °C; stabilization of IRE1α in DSF (IRE1α): concentration-dependently stabilized; IRE1 ∆Tm(°C) (IRE1α; compound 6.25 μM): 0.75 °C and 0.95 °C; IRE1 ∆Tm(°C) (IRE1α; compound 12.5 μM): 1 °C and 0.99 °C; IRE1 ∆Tm(°C) (IRE1α; compound 25 μM): 1.96 °C and 1.82 °C; IRE1 ∆Tm(°C) (IRE1α; compound 50 μM): 2.84 °C and 2.57 °C
3 | CCOC(=O)CCc1c(C)n(C(=O)c2ccccc2)c2ccc(Br)cc12 [Compound 105] | 105.638 and 111.110 and 96.794 | 104.047 and 105.002 and 96.794 | 99.021 and 100.357 and 92.786 | 101.502 and 93.231 and 90.241 | 91.131 and 95.903 and 102.075 | 78.343 and 88.459 and 92.404 | 113.182 and 110.499 and 118.448 | 123.469 and 111.597 and 102.062 | 133.369 and 110.621 and 100.802 | 113.223 and 102.896 and 116.984 | 110.519 and 102.367 and 115.540 | 128.693 and 87.059 and 105.213 | 105.479 and 107.511 and 97.213 | 103.773 and 98.693 and 112.553 | 103.848 and 104.852 and 99.659 | 103.874 and 100.174 and 105.429 | 102.870 and 107.248 and 108.126 | 80.557 and 78.801 and 90.315 | 96.121 and 99.380 and 106.104 | 98.783 and 101.411 and 97.532 | A549 viability (A549 cells; 1.85185 μM): 93.780 and 103.281 and 111.131; A549 viability (A549 cells; 5.55556 μM): 105.404 and 106.621 and 106.322; A549 viability (A549 cells; 16.6667 μM): 96.476 and 98.393 and 111.165; A549 viability (A549 cells; 50 μM): 100.539 and 103.017 and 106.219
4 | COc1ccc2c(c1)c(CCC(=O)O)c(C)n2C(=O)c1cc2ccccc2s1 [IA10] |  |  |  |  |  |  |  |  |  |  |  |  |  |  |  |  |  |  |  |  | IC50 ([1]; FRET assay, dephosphorylated IRE1α, read-out: IRE1α IC50 (RNase activity)): 1810 nM; IC50 [1, 3]: 727 nM and 2780 nM and 2470 nM and 1250 nM; inhibition at 5.56 µM (IRE1α (ERN1); Conc. 5560 nM, duplicates, read-out: IRE1a Kinase Displacement(%)): 35%; inhibition at 16.7 µM (IRE1α (ERN1); Conc. 16700 nM, duplicates, read-out: IRE1a Kinase Displacement(%)): 63%; inhibition at 50 µM (IRE1α (ERN1); [5]): 58%; IC50 (IRE1α (ERN1); IRE1α kinase domain, read-out: IC50 (kinase binding), LanthaScreen Eu kinase binding): 9610 nM; IC50 ([2]; FRET assay, read-out: p-IRE1α IC50 (RNase activity)): 1970 nM; IC50 [2, 4]: 3010 nM and 1920 nM and 985 nM
5 | COc1ccc2c(c1)c(CCC(=O)O)c(C)n2C(=O)c1ccc(S(=O)(=O)F)cc1 [IA06] |  |  |  |  |  |  |  |  |  |  |  |  |  |  |  |  |  |  |  |  | IC50 ([1]; IRE1a IC50, individual replicates (n1-n4), FRET assay, source data, unit from Fig. 3 / sheet Fig. 2b): 9650 nM and 7760 nM and 4550 nM; IC50 ([1]; IRE1α IC50, FRET assay, RNase activity, mean (± SEM)): 7320 nM; inhibition at 50 µM (IRE1α (ERN1); 50 μM, read-out: kinase inhibition at highest tested concentration): 23%; inhibition at 50 µM (IRE1α (ERN1); [5]): 17%; IC50 ([2]; p-IRE1a IC50, individual replicates (n1-n4), FRET assay, source data, unit from Fig. 3): 11100 nM and 6780 nM and 5450 nM; IC50 ([2]; p-IRE1α IC50, FRET assay, RNase activity, mean (± SEM)): 7790 nM
